Laboratory results taken from patent publication US8957097B2, “Hemi-phorboxazole A derivatives and methods of their use” (The Trustees Of The University Of Pennsylvania, priority 2009, dated 2015).
In brackets after ≈: the same amount, converted by molar mass. Like-named read-outs stand apart in the source and are kept apart here.

Tests used:
[1] = tested on: National Cancer Institute's panel of 60 human tumor cell lines; conditions: mean over NCI panel of 60 human tumor cell lines; cited from earlier work
HCT-116 Colon = test: tumor cell growth inhibitory activity, HCT-116 colon; type: cell-based, human; conditions: for IC50: Homo sapiens
Procedure: (§1) Compounds of the invention were assayed for tumor cell growth inhibitory activity, in parallel with (+) phorboxazole A (1) hemi-phorboxazole A (3).

C. albicans ACTCC 14503 = test: antifungal microbroth dilution assay, C. albicans ACTCC 14503; type: cell-based, Candida albicans; conditions: for MIC: Candida albicans
Procedure: (§2) Tests of antifungal activity in microbroth dilution assay against pathogenic Candida strains was performed according to known methods. (National Committee for Clinical Laboratory Standards, 2002. Reference method for broth dilution antifungal susceptibility testing of yeast, 2nd ed. Approved standard M27-A2. National Committee for Clinical Laboratory Standards, Wayne, Pa.). For strains see: Mulder, R. J.; Shafer, C. M.; Dalisay, D. S.; Molinski, T. F. Bioorg. Med. Chem. Lett. 2009, 19, 2928-2930.

C. albicans UCD-FR1 = test: antifungal microbroth dilution assay, C. albicans UCD-FR1; type: cell-based, Candida albicans; conditions: for MIC: Candida albicans
Procedure: as §2

C. albicans 96-489 = test: antifungal microbroth dilution assay, C. albicans 96-489; type: cell-based, Candida albicans
Procedure: as §2

SK-BR-3 Breast = test: tumor cell growth inhibitory activity, SK-BR-3 breast; type: cell-based, human; conditions: for IC50: Homo sapiens
Procedure: as §1

[2] = Table 6, HCT-116 colon tumor cells
[3] = Table 5, HCT-116 colon tumor cells
[4] = Table 6, SK-BR-3 breast tumor cells

Row | Structure (SMILES) | HCT-116 Colon IC50 (HCT-116 Colon; [2]) [µg/mL] | C. albicans ACTCC 14503 MIC (C. albicans ACTCC 14503; Table 8, microbroth dilution) [µg/mL] | C. albicans UCD-FR1 MIC (C. albicans UCD-FR1; Table 8, microbroth dilution) [µg/mL] | C. albicans 96-489 MIC (C. albicans 96-489; Table 8, microbroth dilution) [µg/mL] | other results
1 | C=C1C[C@@H]2C[C@H]3C[C@@H](O)C[C@H](O3)c3coc(n3)/C=C\C[C@H]3O[C@@H](/C(C)=C/c4coc(C[C@]5(O)C[C@H](OC)C[C@H]([C@H](O)/C=C(C)/C=C/[C@@H](C/C=C/Br)OC)O5)n4)[C@H](C)[C@@H](OC(=O)/C=C\C[C@@H](C1)O2)[C@H]3C [Compound 2, Phorboxazole B] |  |  |  |  | GI50 [1]: 1.58 nM
2 | C=C1C[C@@H]2C[C@@H]3CCO[C@@H](O3)c3cccc(c3)/C=C/C[C@H]3O[C@@H](/C(C)=C/c4ncco4)[C@H](C)[C@@H](OC(=O)/C=C\C[C@@H](C1)O2)[C@H]3C [Compound 27] | 5.44 | 4 | 8 | 32 | 
3 | C=C1C[C@@H]2C[C@@H]3CCO[C@@H](O3)c3cccc(c3)/C=C/C[C@H]3O[C@@H](/C(C)=C/c4cccs4)[C@H](C)[C@@H](OC(=O)/C=C\C[C@@H](C1)O2)[C@H]3C [Compound 28] | 5.96 | 8 | 16 | 32 | 
4 | C=C1C[C@@H]2C[C@@H]3CCO[C@@H](O3)c3coc(n3)/C=C/C[C@H]3O[C@@H](/C(C)=C/C#N)[C@H](C)[C@@H](OC(=O)/C=C/C[C@@H](C1)O2)[C@H]3C [Compound (E, E)-5] |  |  |  |  | HCT-116 Colon IC50 (HCT-116 Colon; [3]): 1.54 µg/mL; C. albicans ACTCC 14503 MIC (C. albicans ACTCC 14503; Table 7, microbroth dilution): 4 µg/mL; C. albicans UCD-FR1 MIC (C. albicans UCD-FR1; Table 7, microbroth dilution): 8 µg/mL; C. albicans 96-489 MIC (C. albicans 96-489; Table 7, microbroth dilution): 32 µg/mL
5 | C=C1C[C@@H]2C[C@@H]3CCO[C@@H](O3)c3cccc(c3)/C=C/C[C@H]3O[C@@H](/C(C)=C/C#N)[C@H](C)[C@@H](OC(=O)/C=C/C[C@@H](C1)O2)[C@H]3C [Compound (E, E)-6] | >6.25 | >64 | >64 | >64 | 
6 | C=C1C[C@@H]2C[C@@H]3CCO[C@@H](O3)c3coc(n3)/C=C/C[C@H]3O[C@@H](/C(C)=C/I)[C@H](C)[C@@H](OC(=O)/C=C/C[C@@H](C1)O2)[C@H]3C [Compound (E, E)-15] |  |  |  |  | HCT-116 Colon IC50 (HCT-116 Colon; [3]): >6.25 µg/mL; C. albicans ACTCC 14503 MIC (C. albicans ACTCC 14503; Table 7, microbroth dilution): >64 µg/mL; C. albicans UCD-FR1 MIC (C. albicans UCD-FR1; Table 7, microbroth dilution): >64 µg/mL; C. albicans 96-489 MIC (C. albicans 96-489; Table 7, microbroth dilution): >64 µg/mL
7 | C=C1C[C@@H]2C[C@@H]3CCO[C@@H](O3)c3cccc(c3)/C=C/C[C@H]3O[C@@H](/C(C)=C/I)[C@H](C)[C@@H](OC(=O)/C=C/C[C@@H](C1)O2)[C@H]3C [Compound (E, E)-24] | >6.25 | >64 | >64 | >64 | 
8 | C=C1C[C@@H]2C[C@@H]3CCO[C@@H](O3)c3cccc(c3)/C=C\C[C@H]3O[C@@H](/C(C)=C/C#N)[C@H](C)[C@@H](OC(=O)/C=C/C[C@@H](C1)O2)[C@H]3C [Compound (E, Z)-6] | >6.25 | >64 | >64 | >64 | 
9 | C=C1C[C@@H]2C[C@@H]3CCO[C@@H](O3)c3cccc(c3)/C=C\C[C@H]3O[C@@H](/C(C)=C/I)[C@H](C)[C@@H](OC(=O)/C=C/C[C@@H](C1)O2)[C@H]3C [Compound (E, Z)-24] | >6.25 | >64 | >64 | >64 | 
10 | C=C1C[C@@H]2C[C@@H]3CCO[C@@H](O3)c3coc(n3)/C=C/C[C@H]3O[C@@H](/C(C)=C/C#N)[C@H](C)[C@@H](OC(=O)/C=C\C[C@@H](C1)O2)[C@H]3C [Compound (Z, E)-5] |  |  |  |  | HCT-116 Colon IC50 (HCT-116 Colon; [3]): >6.2 µg/mL; SK-BR-3 Breast IC50 (SK-BR-3 Breast; Table 5, SK-BR-3 breast tumor cells): >6.2 µg/mL; C. albicans ACTCC 14503 MIC (C. albicans ACTCC 14503; Table 7, microbroth dilution): 16 µg/mL; C. albicans UCD-FR1 MIC (C. albicans UCD-FR1; Table 7, microbroth dilution): 16 µg/mL; C. albicans 96-489 MIC (C. albicans 96-489; Table 7, microbroth dilution): >64 µg/mL
11 | C=C1C[C@@H]2C[C@@H]3CCO[C@@H](O3)c3cccc(c3)/C=C/C[C@H]3O[C@@H](/C(C)=C/C#N)[C@H](C)[C@@H](OC(=O)/C=C\C[C@@H](C1)O2)[C@H]3C [Compound (Z, E)-6] | 0.207 |  |  |  | SK-BR-3 Breast IC50 (SK-BR-3 Breast; [4]): 0.258 µg/mL
12 | C=C1C[C@@H]2C[C@@H]3CCO[C@@H](O3)c3coc(n3)/C=C/C[C@H]3O[C@@H](/C(C)=C/I)[C@H](C)[C@@H](OC(=O)/C=C\C[C@@H](C1)O2)[C@H]3C [Compound (Z, E)-15] |  |  |  |  | HCT-116 Colon IC50 (HCT-116 Colon; [3]): >6.25 µg/mL; C. albicans ACTCC 14503 MIC (C. albicans ACTCC 14503; Table 7, microbroth dilution): >64 µg/mL; C. albicans UCD-FR1 MIC (C. albicans UCD-FR1; Table 7, microbroth dilution): >64 µg/mL; C. albicans 96-489 MIC (C. albicans 96-489; Table 7, microbroth dilution): >64 µg/mL
13 | C=C1C[C@@H]2C[C@@H]3CCO[C@@H](O3)c3cccc(c3)/C=C/C[C@H]3O[C@@H](/C(C)=C/I)[C@H](C)[C@@H](OC(=O)/C=C\C[C@@H](C1)O2)[C@H]3C [Compound (Z, E)-24] | >6.25 | >64 | >64 | >64 | 
14 | C=C1C[C@@H]2C[C@@H]3C[C@@H](O)C[C@@H](O3)c3coc(n3)/C=C/C[C@H]3O[C@@H](/C(C)=C/C#N)[C@H](C)[C@@H](OC(=O)/C=C\C[C@@H](C1)O2)[C@H]3C [HEMI-PHORBOXAZOLE A, Hemi-Phorboxazole A] | >6.2 | >64 | >64 | >64 | IC50 (HCT-116 Colon; HCT-116, read-out: HCT-116 Colon IC50): > 6.2 µg/mL; IC50 (SK-BR-3 Breast; SK-BR-3, read-out: SK-BR-3 Breast IC50): > 6.2 µg/mL; SK-BR-3 Breast IC50 (SK-BR-3 Breast; [4]): >6.2 µg/mL; MIC (C. albicans ACTCC 14503; ACTCC14503, read-out: C. albicans ACTCC 14503 MIC): > 64 µg/mL; MIC (C. albicans UCD-FR1; UCDFR1, read-out: C. albicans UCD-FR1 MIC): > 64 µg/mL; MIC (C. albicans 96-489; Candida albicans, 96489, read-out: C. albicans 96-489 MIC): > 64 µg/mL
15 | C=C1C[C@@H]2C[C@@H]3C[C@@H](O)C[C@@H](O3)c3coc(n3)/C=C/C[C@H]3O[C@@H](/C(C)=C/c4coc(C[C@]5(O)C[C@H](OC)C[C@H]([C@H](O)/C=C(C)/C=C/[C@@H](C/C=C/Br)OC)O5)n4)[C@H](C)[C@@H](OC(=O)/C=C\C[C@@H](C1)O2)[C@H]3C [Phorboxazole A] | 0.00071 | 1.0 | 2.0 | 1.0 | IC50 (HCT-116 Colon; Table 5, HCT-116 colon tumor cells, read-out: HCT-116 Colon IC50): 0.00071 µg/mL (≈ 0.000693 µM); IC50 (SK-BR-3 Breast; Table 5, SK-BR-3 breast tumor cells, read-out: SK-BR-3 Breast IC50): 0.002 µg/mL (≈ 0.00195 µM); MIC (C. albicans ACTCC 14503; ACTCC14503, Table 7, microbroth dilution, read-out: C. albicans ACTCC 14503 MIC): 1 µg/mL (≈ 0.977 µM); MIC (C. albicans UCD-FR1; UCDFR1, Table 7, microbroth dilution, read-out: C. albicans UCD-FR1 MIC): 2 µg/mL (≈ 1.95 µM); MIC (C. albicans 96-489; Candida albicans, 96489, Table 7, microbroth dilution, read-out: C. albicans 96-489 MIC): 1 µg/mL (≈ 0.977 µM); GI50 [1]: 1.58 nM
